Experimental findings from paper PMC12186490, “Environmental pH controls antimicrobial production by human probiotic Streptococcus salivarius” (Journal of Bacteriology, 2025) are described below.

The subject of the assay is sar-BGC (sarD) expression in WT SAL. Put plainly: sarD transcript levels by qRT-PCR after lactate supplementation of WT SAL. The format is cell-based, Streptococcus salivarius K12. As to conditions: WT SAL at late-exponential growth (A600 ~ 2.0), fresh THY with sodium lactate, 15 minutes; relative to WT-LE growth; three biological replicates. As to the method:
Fig 2 SAL upregulates sar-BGC expression in concert with environmental acidification. (A) Wild-type (WT) SAL was grown in THY broth, and samples were collected at the indicated time points. Growth medium pH, sar-BGC (sarD) transcript levels, and bacterial growth by absorption at wavelength 600 nm (A600) were determined. Right y-axes represent fold change in sar-BGC transcript levels (green) and A600 (red), whereas the left y-axis represents pH of the growth medium (black). Fold changes in transcript levels at indicated time points relative to starting culture (time point t = 0 h) are shown. Data are mean ± standard deviation for three biological replicates. (B) WT SAL grown in THY to late-exponential growth phase (LE, A600 ~ 2.0) was harvested by centrifugation, suspended in THY broth adjusted to indicated pH, and incubated for 15 minutes. […] P values assessed by t-test analyses relative to WT LE growth are shown (n.s, not significant; *, P < 0.05; ****, P < 0.0001). […]
SAL and other lactic acid bacteria acidify their environment via lactic acid production during their growth. […] After 15 min incubation, cells were collected and sarD transcript levels in each pH were assessed by quantitative real-time PCR (qRT-PCR). […] To test whether lactate acts as a signal for the induction of sar-BGC expression, we assessed sarD transcript levels in SAL grown in the presence of lactate. […]
On the technique in general: Quantitative PCR measures a nucleic acid by following its amplification.

On to `CC(O)C(=O)[O-].[Na+]` (stereo not shown) [lactate, sodium lactate], for which the “induction of sar-BGC expression (sarD transcript levels)” value is recorded as “did not induce sar-BGC expression”.
